# Structures can show the parent of a compound that is named as a salt.
# What was measured:
# [1] = system: acute clots, formed from ovine blood; assay: Mechanical compression testing (Texture Analyzer) of acute clots; conditions: acute blood clot, after 1 hour of treatment
# Procedure: (§1) Acute clots, formed from ovine blood, were formed and treated with guanidine hydrochloride. Clots were formed following the general procedures set forth in Luo et al., “Creation Of Fibrinogen-Enhanced Experimental Blood Clots To Evaluate Mechanical Thrombectomy Devices For Treatment Of Acute Stroke: An In Vitro Study,” J. Vase. Interv. Radiol. 2012 August; 23(8): 1077-83. Briefly, ovine blood was contacted with about […] thrombin and about 25 mM calcium chloride. Additional acute clots were formed where about 40 mg/ml fibrinongen was first added to the ovine blood.
# Guanidine chloride at concentrations of 6 M and 12 M in 0.9% sodium chloride were added to the clots, with untreated clots and clots treated with 0.2 mg/ml tPA used as controls.
# The clots were subjected to mechanical testing to determine the effects of the guanidine chloride on the hardness of the clot, as well as its elasticity and lytic resistance. Briefly, a Texture Analyzer manufactured by Texture Technologies Corporation, running Exponent Software from Texture Technologies Corporation was used. […] Clot samples having a thickness of about 1 mm were prepared and placed underneath the probe, until the probe was about 3 mm above the sample surface. The Texture Analyzer subjected the sample to a 0.5 mm compression test, and then a 1 mm compression test. […]
# [2] = system: chronic clots, formed of collagen; assay: Mechanical compression testing (Texture Analyzer) of chronic collagen clots
# Procedure: The clots were subjected to mechanical testing to determine the effects of the guanidine chloride on the hardness of the clot, as well as its elasticity and lytic resistance. Briefly, a Texture Analyzer manufactured by Texture Technologies Corporation, running Exponent Software from Texture Technologies Corporation was used. […] Clot samples having a thickness of about 1 mm were prepared and placed underneath the probe, until the probe was about 3 mm above the sample surface. The Texture Analyzer subjected the sample to a 0.5 mm compression test, and then a 1 mm compression test. Chronic clots, formed of collagen, were formed and treated with guanidine hydrochloride. Chronic collagen clots were formed by reverse dialysis, as generally disclosed in Knight, et al., “In vitro formation by reverse dialysis of collagen gels containing highly oriented arrays of fibrils,” J. Biomed. Mater. Res., 41, 185-191 (1998). Briefly, about 1.5 grams collagen was combined with about 45 ml distilled water and 5 ml of 0.5 M acetic acid. A dialysis solution was prepared with 2% polyethylene glycol (PEG) in about 10 mM of a Tris base buffer (2000 ml distilled water added to 40 grams PEG and 2.422 grams Tris Base (also known as Trimethylol Aminomethane, Tris(hydroxymethyl)aminomethane)). […] Fibril formation was allowed to proceed over a period of about 48 hours, at which time the collagen was collected and stored in about 10 mM Tris-base solution at a pH of about 7.4 and stored at about 4° C. Additional chronic clots were prepared by combining collagen gels produced as above, and then adding genipin thereto (about 5 mM genipin solution in about 0.9% sodium chloride). Chronic clots thus formed were subjected to the hardness and gravimetric tests described above in Example 1.
# [3] = system: chronic clots, formed of collagen; assay: Gravimetric testing of lytic resistance of chronic collagen clots
# Procedure: Gravimetric testing to determine lytic resistance of the clots was carried out as follows. Briefly, an incubation shaker was heated to about 37° C. Clots were allowed to rest at a temperature of about 4° C. for 24 hours prior to testing. About 200-300 mg of clot samples were weighed out, with 1 sample placed per well in a 24 well plate. Weights were recorded. About 1 ml of each solution was placed in each well. The plate was then placed into the incubation shaker and shaken at 160 rpm for 1 hour and 3 hours. The weight was recorded at each time point. Lytic resistance was defined as follows, as the percent clot remaining: [formula] Chronic clots, formed of collagen, were formed and treated with guanidine hydrochloride. Chronic collagen clots were formed by reverse dialysis, as generally disclosed in Knight, et al., “In vitro formation by reverse dialysis of collagen gels containing highly oriented arrays of fibrils,” J. Biomed. Mater. Res., 41, 185-191 (1998). Briefly, about 1.5 grams collagen was combined with about 45 ml distilled water and 5 ml of 0.5 M acetic acid. A dialysis solution was prepared with 2% polyethylene glycol (PEG) in about 10 mM of a Tris base buffer (2000 ml distilled water added to 40 grams PEG and 2.422 grams Tris Base (also known as Trimethylol Aminomethane, Tris(hydroxymethyl)aminomethane)). […]
# [4] = system: acute clots, formed from ovine blood; assay: Gravimetric testing of lytic resistance of acute clots
# Procedure: as §1
# Gravimetric testing to determine lytic resistance of the clots was carried out as follows. Briefly, an incubation shaker was heated to about 37° C. Clots were allowed to rest at a temperature of about 4° C. for 24 hours prior to testing. About 200-300 mg of clot samples were weighed out, with 1 sample placed per well in a 24 well plate. Weights were recorded.
# Guanidine hydrochloride solutions were prepared as follows:
# 1. 12 M Guanidine hydrochloride (GH): 22.93 g GH+20 ml 0.9% sodium chloride
# 2. 6 M GH: 10 ml 12 M GH+10 ml 0.9% sodium chloride
# 3. 3 M GH: 10 ml 6 M GH+10 ml 0.9% sodium chloride
# 4. 1 M GH: 10 ml 3 M GH+20 ml 0.9% sodium chloride
# 6. 0.5 M GH: 10 ml 1 M GH+10 ml 0.9% sodium chloride
# About 1 ml of each solution was placed in each well. […] The weight was recorded at each time point. […]
# [5] = chronic clots prepared without genipin
structure (smiles),measurement,setting,value
N=C(N)N [guanidine hydrochloride],"effect on hardness (summary, FIG. 2)",[1],significant effect on the hardness
same,elasticity after treatment,[2]; [5],dissolved/broken down to a point where elasticity could not be measured
same,hardness after treatment,[2]; [5],dissolved/broken down to a point where hardness could not be measured
same,"effect on hardness (summary, FIG. 3)",[2]; chronic collagen clots,significant decrease in hardness
same,lytic resistance versus molar concentration,"[3]; chronic clots, increasing molar concentration of guanidine hydrochloride",lytic resistance decreased upon increase in the molar concentration
same,dissolution of clot (summary),"[3]; chronic collagen-based clots, after 1 hour, even at low concentrations",dissolve most of the collagen clot models
same,clot weight (summary of gravimetric testing),"[4]; acute blood-based clot models, increased concentrations",did not show a decrease in weight
same,lytic resistance versus molar concentration,"[4]; acute clots, increasing molar concentration of guanidine hydrochloride",lytic resistance decreased upon increase in the molar concentration
